According to ChEMBL document CHEMBL3885861, “Open TG-GATES”:

Species: Rattus norvegicus
Experiment: Open TG-GATES - Regimen: Single
Assay type: toxicity, organism-based, Sprague-Dawley
Parameters: regimen Single, gender Male, age 6 weeks
Conditions: in vivo, po, 1 mg/kg, route gavage, dose level Low; for APTT / Bas / Eos / Fbg / Hb / Ht / Lym / MCH / MCHC / MCV / Mono / Neu / PT / Plat / RBC / Ret / WBC: tissue Blood; for KIDNEY_L / KIDNEY_R / KIDNEY_TOTAL: tissue Kidney; for LIVER: tissue Liver; for A/G / ALP / ALT / AST / BUN / CRE / Ca / Cl / DBIL / GLC / IP / K / LDH / Na / PL / RALB / TBIL / TC / TG / TP / gamma-GTP: tissue Plasma

CN1C(C(=O)Nc2ccccn2)=C(O)c2sc(Cl)cc2S1(=O)=O [LORNOXICAM]
TERMINAL_BW (3 h): 222.5 g | APTT (3 h): 19.4 s | Bas (3 h): 0.6% | Eos (3 h): 1% | Fbg (3 h): 219 mg/dL | Hb (3 h): 13.5 g/dL | Ht (3 h): 39.8% | Lym (3 h): 78.2% | MCH (3 h): 21.5 pg | MCHC (3 h): 33.9% | MCV (3 h): 63.4 fL | Mono (3 h): 2.6% | Neu (3 h): 17.4% | PT (3 h): 11.6 s | Plat (3 h): 128.4 x10_4/uL | RBC (3 h): 627.6 x10_4/ul | Ret (3 h): 7% | WBC (3 h): 99.9 x10_2/uL | KIDNEY_L (3 h): 1 g | KIDNEY_R (3 h): 1 g | KIDNEY_TOTAL (3 h): 2 g | LIVER (3 h): 10 g | A/G (3 h): 1.7 | ALP (3 h): 878.4 IU/L | ALT (3 h): 40.6 IU/L | AST (3 h): 71.8 IU/L | BUN (3 h): 11 mg/dL | CRE (3 h): 0.3 mg/dL | Ca (3 h): 10.7 mg/dL | Cl (3 h): 102.6 meq/L | DBIL (3 h): 0.072 mg/dL | GLC (3 h): 194.2 mg/dL | IP (3 h): 9.2 mg/dL | K (3 h): 3.7 meq/L | LDH (3 h): 172 IU/L | Na (3 h): 140.4 meq/L | PL (3 h): 149.8 mg/dL | RALB (3 h): 3.5 g/dL | TBIL (3 h): 0.1 mg/dL | TC (3 h): 81.8 mg/dL | TG (3 h): 64.2 mg/dL | TP (3 h): 5.6 g/dL | gamma-GTP (3 h): 1.2 IU/L | TERMINAL_BW (6 h): 223 g | APTT (6 h): 19.9 s | Bas (6 h): 0.8% | Eos (6 h): 1% | Fbg (6 h): 211 mg/dL | Hb (6 h): 13.1 g/dL | Ht (6 h): 38.9% | Lym (6 h): 74.8% | MCH (6 h): 20.8 pg | MCHC (6 h): 33.8% | MCV (6 h): 61.7 fL | Mono (6 h): 3.2% | Neu (6 h): 19.8% | PT (6 h): 12.2 s | Plat (6 h): 126.1 x10_4/uL | RBC (6 h): 629.8 x10_4/ul | Ret (6 h): 6.7% | WBC (6 h): 117.6 x10_2/uL | KIDNEY_L (6 h): 1 g | KIDNEY_R (6 h): 1 g | KIDNEY_TOTAL (6 h): 2 g | LIVER (6 h): 9.3 g | A/G (6 h): 1.7 | ALP (6 h): 908.8 IU/L | ALT (6 h): 44.4 IU/L | AST (6 h): 79.6 IU/L | BUN (6 h): 11.2 mg/dL | CRE (6 h): 0.3 mg/dL | Ca (6 h): 10.6 mg/dL | Cl (6 h): 104 meq/L | DBIL (6 h): 0.074 mg/dL | GLC (6 h): 190.2 mg/dL | IP (6 h): 8.6 mg/dL | K (6 h): 4 meq/L | LDH (6 h): 184.8 IU/L | Na (6 h): 140.6 meq/L | PL (6 h): 134.8 mg/dL | RALB (6 h): 3.5 g/dL | TBIL (6 h): 0.1 mg/dL | TC (6 h): 72.2 mg/dL | TG (6 h): 61.8 mg/dL | TP (6 h): 5.5 g/dL | gamma-GTP (6 h): 1.2 IU/L | TERMINAL_BW (9 h): 220.2 g | APTT (9 h): 19.1 s | Bas (9 h): 0.6% | Eos (9 h): 0.8% | Fbg (9 h): 220.4 mg/dL | Hb (9 h): 13.5 g/dL | Ht (9 h): 40.3% | Lym (9 h): 75% | MCH (9 h): 21.2 pg | MCHC (9 h): 33.5% | MCV (9 h): 63.3 fL | Mono (9 h): 3.4% | Neu (9 h): 20.4% | PT (9 h): 12.2 s | Plat (9 h): 119.8 x10_4/uL | RBC (9 h): 636.4 x10_4/ul | Ret (9 h): 7.4% | WBC (9 h): 109.6 x10_2/uL | KIDNEY_L (9 h): 1 g | KIDNEY_R (9 h): 1 g | KIDNEY_TOTAL (9 h): 2 g | LIVER (9 h): 8.9 g | A/G (9 h): 1.6 | ALP (9 h): 866.2 IU/L | ALT (9 h): 37.8 IU/L | AST (9 h): 68.6 IU/L | BUN (9 h): 10.6 mg/dL | CRE (9 h): 0.3 mg/dL | Ca (9 h): 10.5 mg/dL | Cl (9 h): 103 meq/L | DBIL (9 h): 0.072 mg/dL | GLC (9 h): 197.8 mg/dL | IP (9 h): 9.1 mg/dL | K (9 h): 4.1 meq/L | LDH (9 h): 158.6 IU/L | Na (9 h): 141 meq/L | PL (9 h): 132.8 mg/dL | RALB (9 h): 3.4 g/dL | TBIL (9 h): 0.1 mg/dL | TC (9 h): 73.2 mg/dL | TG (9 h): 57.8 mg/dL | TP (9 h): 5.5 g/dL | gamma-GTP (9 h): 1.2 IU/L | TERMINAL_BW (24 h): 238.6 g | APTT (24 h): 19.3 s | Bas (24 h): 0.4% | Eos (24 h): 0.8% | Fbg (24 h): 251 mg/dL | Hb (24 h): 13 g/dL | Ht (24 h): 38.9% | Lym (24 h): 69.4% | MCH (24 h): 21.3 pg | MCHC (24 h): 33.4% | MCV (24 h): 63.6 fL | Mono (24 h): 3.2% | Neu (24 h): 26% | PT (24 h): 11.8 s | Plat (24 h): 121.2 x10_4/uL | RBC (24 h): 612.8 x10_4/ul | Ret (24 h): 6.9% | WBC (24 h): 134.5 x10_2/uL | KIDNEY_L (24 h): 1 g | KIDNEY_R (24 h): 1 g | KIDNEY_TOTAL (24 h): 2 g | LIVER (24 h): 11.4 g | A/G (24 h): 1.5 | ALP (24 h): 822 IU/L | ALT (24 h): 39.6 IU/L | AST (24 h): 68.8 IU/L | BUN (24 h): 14.8 mg/dL | CRE (24 h): 0.4 mg/dL | Ca (24 h): 10.8 mg/dL | Cl (24 h): 104 meq/L | DBIL (24 h): 0.098 mg/dL | GLC (24 h): 203.6 mg/dL | IP (24 h): 7.6 mg/dL | K (24 h): 4.1 meq/L | LDH (24 h): 190.4 IU/L | Na (24 h): 141 meq/L | PL (24 h): 145.2 mg/dL | RALB (24 h): 3.2 g/dL | TBIL (24 h): 0.2 mg/dL | TC (24 h): 73.8 mg/dL | TG (24 h): 100.2 mg/dL | TP (24 h): 5.4 g/dL | gamma-GTP (24 h): 1.4 IU/L
